Test results reported in patent US4238472A, “Radioimmunoassay for chlorinated dibenzo-p-dioxins” (priority 1978, dated 1980).

Key:
[1] = in vivo; cited from earlier work
[2] = test system: antiserum F-12; test: Specificity / cross reactivity of the radioimmunoassay, antiserum F-12; assay type: binding, rabbit
Description: (§1) Since TCDD itself has no chemically reactive functional groups, a derivative was synthesized that retained most of the structural features of TCDD but with the addition of a reactive site. This derivative was coupled to an immunogenic protein carrier, such as bovine serum albumin, rabbit serum albumin, etc., so that animals would respond to it by producing an antiserum containing antibodies. A second compound was synthesized, still structurally similar to TCDD so that it would bind to the antibodies, but capable of being labeled with ^125 I for detectability at the picogram level. An amount of antiserum capable of binding about 20 pg of ^125 I-labeled dioxin derivative (hapten) is preincubated with the detergent emulsion of the sample extract (possibly containing TCDD). Then the mixture is incubated with the ^125 I-labeled derivative long enough for equilibrium binding to occur and form the hapten-antibody complex. A second antibody, namely, goat antibodies against rabbit gamma-globulin (i.e., goat anti-rabbit γ-globulin) are then added to precipitate the antibody ^125 I-labeled dioxin complex, and the amount of ^125 I in the precipitate is determined. The extent to which preincubation with the test material inhibits or decreases the amount of ^125 I precipitated relative to the amount precipitated in the absence of test material is a measure of the amount of chlorodibenzodioxin in the test sample.
(§2) Radioimmunoassay of small molecules requires some means of separating free hapten from antibody-bound hapten. The procedure used in the present invention, chosen because of its compatibility with detergent-solubilized hapten, involved precipitating the antibody-hapten complex with a second antibody, namely, goat antibodies against rabbit gamma-globulin. In this assay chlorodibenzodioxin from the environmental sample completes with the ^125 I-labeled hapten for binding to the antibody. Thus, the decrease in precipitation of radioactivity is a measure of the amount of (unlabeled) hapten in the test sample.
(§3) The assay buffer (hereinafter referred to as "PBS") contained, per liter, 20 mmol of potassium phosphate, 140 mmol of NaCl, and 200 mg of sodium azide. The pH was adjusted to 7.3 with NaOH. Antiserum was diluted with PBS also containing 0.1% bovine gamma globulin and 0.02% rabbit gamma globulin (w/v). Each assay tube from procedure G above received 0.2 ml of PBS, after which the tubes were held in the sonicator for 40 minutes and then cooled to room temperature. Appropriately diluted antiserum or, as control, antiserum diluant was added (0.2 ml) and, after vortex-mixing, the tubes were incubated for 40 minutes at 37°. 14000 disintegrations per minute (hereafter referred to as "DPM") or 7000 counts per minute (hereinafter referred to as "CPM", which equals DPM×counting efficiency) of [^125 I]-iodovaleramide derivative of trichlorodibenzo-p-dioxin in PBS containing 1% "Cutscum" were then added to each tube (approximately 10 μl), vortex mixed, and the tubes incubated for 1 hour at 37° followed by an additional 65 hours of incubation at 4°. Each tube next received 1.24 units of goat anti-rabbit gamma globulin in 0.2 ml of PBS containing 0.05 mM ethylenediamine tetracetic acid (hereinafter referred to as "EDTA"), was vortex mixed, and incubated for 5 hours at 4°. The tubes were centrifuged at 500×g for 20 minutes at 4°. The supernates were poured off and the tubes allowed to drain into Whatman #3 MM paper for 10 minutes. The precipitate or pellets obtained were then radioassayed for ^125 I, with 10 minute count cycles.
(§4) Standard curves were prepared using sequential two-fold dilutions of TCDD or other test compounds in benzene and evaporating the solvent as described above. Both control (blank) and TCDD-spiked tissues were extracted and processed as described above to determine general interference and recoveries. All samples were run in triplicate. […]

[3] = test system: antiserum GC-5; test: Cross reactivity in chlorinated DBD radioimmunoassay, antiserum GC-5; assay type: binding, rabbit
Description: as §1, §2, §3, §4

[4] = test system: antiserum F-12; test: Specificity / cross reactivity of the radioimmunoassay, antiserum F-12; assay type: binding, rabbit; conditions: incubation times between 2 and 65 hours; "Cutscum"
[5] = test system: guinea pig; conditions: cited from earlier work
[6] = Determination of 2,3,7,8-TCDD in monkey tissue by gas chromatography with negative ion mass spectrometry; assay type: in vivo, Rhesus Monkeys (Macaca muletta)
Description: (§5) Using spiked, sandy soil samples, the inventors were able to detect 0.7 picomole of 2,3,7,8-TCDD using "Cutsum" and either antiserum. With "Triton X-305" replacing the "Cutscum", as little as 0.08 picomole of 2,3,7,8-TCDDcould be detected. These levels of sensitivity required that a dilution of antiserum (usually about 1:9000) be used that would bind 33% of the ^125 I-labeled hapten. To test the applicability of this assay to tissue samples, the inventors obtained liver and adipose samples from monkeys that had been used in a toxicity study involving 2,3,7,8-TCDD [as described by E. E.McConnell et al in "Toxicity of 2,3,7,8-tetrachlorodibenzo-p-dioxin in Rhesus Monkeys (Macaca muletta) Following a Single Oral Dose", appearing in Toxicol. Appl. Pharmacol. 43/1,175-187(1978)]. Sample size ranged from 3 to 50 mg of tissue for the radioimmunoassay, while 200 mg samples were used for comparison assays by gas chromatography with either negative chemical ionization mass spectrometry [as described by J. R. Hass et al in "Determination of Polychlorinated Dibenzo-p-Dioxins in Biological Samples by Negative Chemical Ionization Mass Spectrometry", appearing in Anal. Chem. 50/11, 1471-1479 (1978)], or an electron capture detector as measuring device.
(§6) ^a Monkeys 373 and 374 were controls and dosed orally with corn oil
alone. Monkeys 380 and 391 were experimental and received a single oral […]

[7] = Determination of 2,3,7,8-TCDD in monkey tissue by gas chromatography with electron capture detector; assay type: in vivo, Rhesus Monkeys (Macaca muletta)
Description: as §5, §6
alone. Monkeys 380 and 391 were experimental and received a single oral
dose of 70 μg/kg or 350 μg/kg TCDD in corn oil, respectively.
GCEC = Gas chromatography with electron capture detector.

[8] = Determination of 2,3,7,8-TCDD in monkey tissue by radioimmunoassay; assay type: in vivo, Rhesus Monkeys (Macaca muletta); conditions: antiserum F12, "Cutscum"
Experimental: Blend 10 g of tissue in 200 ml of chloroform:methanol, 2:1 (v/v). Filter with suction through glass fiber filter paper (Reeve Angel grade 934AH or equivalent). Return the filter paper and cake to the blender jar and blend with 100 ml of chloroform:methanol, 2:1 (v/v). Filter as above ad combine filtrates. Add 52 ml of 1.2% aqueous KCl, mix well, let phases clear, and collect the lower phase in a 500 ml round bottom flask. Evaporate just to dryness at 40° using a rotary evaporator and water aspirator. This is a modification of the method of Folch et al [J.Biol.Chem.,236,497 (1957)].
Grind together 8 g of anhydrous sodium sulfate per gram of adipose, using a mortar and pestle. Extract the resulting powder with chloroform in a Soxhlet extractor, allowing at least 8 cycles.
Leach the lipid residue from 10 g of liver, 100 ml of blood or 1 g of adipose into 15 ml of CCl4. Partition against 15 ml of con.H2 SO4. Centrifuge at 2000 rpm for 30 minutes. Remove as much of the CCl4 layer as possible and record the volume recovered. Pass the CCl4 solution through anhydrous Na2 CO3 in a glass wool-plugged funnel, rinising the Na2 CO3 with 2 ml of fresh CCl4. Concentrate the filtrate just to dryness on a rotary evaporator at 40°. Leach the residue into 1.5 ml of n-hexane:methylene chloride, 97:3 (v/v).
as §3, with “Each tube next received 1.24 units of goat anti-rabbit gamma globulin in 0.2 ml of PBS containing 0.05 mM ethylenediamine tetracetic acid (hereinafter referred to as "EDTA"), was vortex mixed, and incubated for 5 hours at 4°. The tubes were centrifuged at 500×g for 20 minutes at 4°. The supernates were poured off and the tubes allowed to drain into Whatman #3 MM paper for 10 minutes. The precipitate or pellets obtained were then radioassayed for ^125 I, with 10 minute count cycles.” left out
Using spiked, sandy soil samples, the inventors were able to detect 0.7 picomole of 2,3,7,8-TCDD using "Cutsum" and either antiserum. With "Triton X-305" replacing the "Cutscum", as little as 0.08 picomole of 2,3,7,8-TCDDcould be detected. […]

[9] = monkey 380, adipose, single oral dose 70 μg/kg
[10] = monkey 391, adipose, single oral dose 350 μg/kg
[11] = monkey 380, liver, single oral dose 70 μg/kg
[12] = monkey 391, liver, single oral dose 350 μg/kg

| Compound | toxicity relative to TCDD [1] | Cross Reactivity, Antiserum F-12: 100 × (inhibition of 125I binding by 4 pmole of test compound)/(inhibition by 4 pmole of 2,3,7,8-TCDD) [2] | Cross Reactivity, Antiserum GC-5: 100 × (inhibition of 125I binding by 4 pmole of test compound)/(inhibition by 4 pmole of 2,3,7,8-TCDD) [3] | reactivity with F-12 (2,3,7,8-tetrachlorodibenzo-p-dioxin v 2,3,7,8-tetrachlorodibenzofuran) [2] | ratio of inhibition by 5 ng of 2,3,7,8-DBF to that of 2,3,7,8-DBD [4] | acute oral LD50 [5] | TCDD in tissue, GM-MS [6, 9] | TCDD in tissue, GM-MS [6, 10] | TCDD in tissue, GC-EC [7, 9] | TCDD in tissue, GC-EC [7, 11] | TCDD in tissue, GC-EC [7, 10] | TCDD in tissue, GC-EC [7, 12] | TCDD in tissue, RIA [8, 9] | TCDD in tissue, RIA [8, 11] | TCDD in tissue, RIA [8, 10] | TCDD in tissue, RIA [8, 12] | binding by the antibodies in GC-5 [3] | maximum inhibition of binding of 125I-labeled hapten ([3]; GC-5 diluted such that 33% of the label was bound in the absence of competitors) |
| --- | --- | --- | --- | --- | --- | --- | --- | --- | --- | --- | --- | --- | --- | --- | --- | --- | --- | --- |
| Clc1cc2c(cc1Cl)Oc1c(cc(Cl)c(Cl)c1Cl)O2 [1,2,3,7,8-Cl5 Dibenzo-p-Dioxin] | toxicities comparable to that of TCDD | 97% | 99% |  |  |  |  |  |  |  |  |  |  |  |  |  |  |  |
| Clc1cc2oc3cc(Cl)c(Cl)cc3c2cc1Cl [2,3,7,8-Cl4 Dibenzofuran, 2,3,7,8-tetrachlorodibenzofuran] |  | 92% | 25% | approximately the same reactivity | constant |  |  |  |  |  |  |  |  |  |  |  |  |  |
| Clc1cc2c(cc1Cl)Oc1cc(Cl)c(Cl)cc1O2 [2,3,7,8-TCDD, 2,3,7,8-tetrachlorodibenzo-p-dioxin] |  | 100% | 100% | approximately the same reactivity |  | less than 1 microgram per kg | 28 ppb | 1740 ppb | 87 ppb | 17 ppb | 1810 ppb | 30 ppb | 41 ppb | 20 ppb | 1800 ppb | 94 ppb | Essentially all of these antibodies (in GC-5) also bind 2,3,7,8-TCDD | up to 97% |
